Like-named read-outs stand apart in the source and are kept apart here. Where only a bound is given, the exact number is not on record here.

The test system of experiment [1] is influenza A virus (A/PR/8/34). As to the kind of experiment: microbe, parasite or virus in culture. The experiment is classed as cell-based.
The subject of experiment [2] is A/PR/8/34 influenza virus. In words: microbe, parasite or virus in culture. It counts as cell-based.
The test system of experiment [3] is influenza. In words: In vivo prophylaxis study (FIG. 1), survival of infected mice. On the set-up: species or system Balb/c mice. Particulars: 100 mg/kg oral gavage, first dose 2 hours prior to infection, twice daily for 5 days, survival monitored 21 days, P<0.0001 vs vehicle.
For experiment [4], the system named is influenza. As to the kind of experiment: Influenza Therapeutic Mouse Model (Table 6). It counts as in vivo, mice. The settings on record: dosing @ 48 hours post infection with 30 mg/kg BID X 10 days.
The subject of experiment [5] is influenza. In words: In vivo treatment study (FIG. 2), survival of infected mice. On the set-up: species or system Balb/c mice. Particulars: 200 mg/kg oral gavage from 24 hours post infection, twice daily for 10 days, survival monitored 21 days, P<0.0001 vs vehicle.
Where [6] appears, read: Influenza A virus, PR/8, MDCK, MDCK cells infected with A/PR/8/34, survival of infected cells, class symbols, read-out: IC50 (mean all).
Setting [7] is: Influenza A virus, PR/8, MDCK, MDCK cells infected with A/PR/8/34, replication of influenza virus (viral RNA, bDNA), class symbols, read-out: EC50 (mean all).
Where [8] appears, read: Influenza A virus, PR/8, MDCK, mean all, survival of A/PR/8/34 infected MDCK cells (CPE assay), read-out: IC50.
Where [9] appears, read: Influenza A virus, PR/8, mean all, replication of A/PR/8/34 influenza virus (bDNA assay), read-out: EC50.
[10] abbreviates: mean all, A/PR/8/34 influenza virus in MDCK cells, bDNA assay, read-out: EC50.

The IC50 is the concentration needed to halve the response being measured. For orientation: EC50 means the concentration needed to bring the measured effect to its halfway point. For the compound `COC(=O)N[C@H]1CCC[C@@H](Nc2nc(-c3c[nH]c4ncc(Cl)cc34)ncc2F)C1` (relative stereo) [Compound 514, Methyl-cis-3-[[2-(5-chloro-1H-pyrrolo[2,3-b]pyridin-3-yl)-5-fluoro-pyrimidin-4-yl]amino]cyclohexylcarbamate], in experiment [1] (setting [6]), the IC50 was under 5 µM. For the same compound, the EC50 in experiment [2] (setting [7]) was under 5 µM. Moreover, in the experiment on influenza [3], the survival entry is reported as “complete survival”.

Consider `C[C@H]1NC(=O)O[C@]12CCC[C@H](Nc1nc(-c3c[nH]c4ncc(F)cc34)ncc1F)C2` (single isomer, unassigned) [Compound 967], for which the IC50 in experiment [1] (setting [8]) was under 5 µM. In addition, in experiment [2] (setting [9]), the EC50 is under 5 µM. In the experiment on influenza [4], the “Percent Survival” value worked out at 75% and the “Percent Weight Loss (Day 8)” value is 30.9%.

Consider `OC[C@H](O)CN1CCCC(Nc2nc(-c3c[nH]c4ncc(Cl)cc34)ncc2F)C1` (some centres unmarked) [Compound 588], for which the IC50 in experiment [1] (setting [6]) was under 5 µM. The EC50 in experiment [2] (setting [7]) is under 5 µM. Also, in the experiment with influenza [5], the survival result is recorded as “complete survival”.

In the case of `O=C(N[C@@H]1CCC[C@H](Nc2nc(-c3c[nH]c4ncc(F)cc34)ncc2F)C1)N1CCOCC1` [Compound 706, N-[(1R,3S)-3-[[5-fluoro-2-(5-fluoro-1H-pyrrolo[2,3-b]pyridin-3-yl)pyrimidin-4-yl]amino]cyclohexyl]morpholine-4-carboxamide], the IC50 in experiment [1] (Influenza A virus, PR/8, MDCK, mean all, MDCK cells infected with A/PR/8/34, cell protection (CPE), read-out: IC50) was under 5 µM. Besides, the EC50 in experiment [2] (Influenza A virus, PR/8, MDCK, mean all, bDNA viral RNA in MDCK cells infected with A/PR/8/34, read-out: EC50) was under 5 µM. In the experiment with influenza [4], the “Percent Survival” value was found to be 75% and the “Percent Weight Loss (Day 8)” value is recorded as 27.0%.

As for `O=C(N[C@@H]1CCC[C@H](Nc2nc(-c3c[nH]c4ncc(F)cc34)ncc2F)C1)N1CCCC1` [Compound 895, N-((1R,3S)-3-(5-fluoro-2-(5-fluoro-1H-pyrrolo[2,3-b]pyridin-3-yl)-pyrimidin-4-ylamino)cyclohexyl)pyrrolidine-1-carboxamide], the IC50 in experiment [1] (Influenza A virus, PR/8, MDCK, exemplary values in text, survival of A/PR/8/34 infected cells, read-out: IC50) was 0.0008 µM; in experiment [1] (setting [8]), under 5 µM. The concentration giving a half-maximal response (EC50) in experiment [2] (Influenza A virus, PR/8, exemplary values in text, replication of A/PR/8/34 influenza virus, read-out: EC50) was 0.001 µM; in experiment [2] (setting [9]), under 5 µM. Moreover, the “Percent Survival” value with influenza [4] is given as 100%. For the same compound, the “Percent Weight Loss (Day 8)” value in the experiment with influenza [4] was found to be 12.8%.

Regarding “(R)—N-cyclopropyl-2-((5-fluoro-2-(1H-pyrrolo[2,3-b]pyridin-3-yl)pyrimidin-4-ylamino)-methyl)piperidine-1-carboxamide [Compound 372]”, in experiment [1] (read-out: IC50), the half-maximal inhibitory concentration (IC50) lay in the range of 5 to 20 µM. The EC50 in experiment [2] (setting [10]) was 5 to 10 µM.

“(R)—N-tert-butyl-3-((2-(5-chloro-1H-pyrrolo[2,3-b]pyridin-3-yl)-5-fluoropyrimidin-4-ylamino)methyl)piperidine-1-carboxamide [Compound 117]”: the IC50 in experiment [1] (read-out: IC50 (mean all)) is under 5 µM. The EC50 in experiment [2] (read-out: EC50 (mean all)) was under 5 µM.

As for “N-[cis-2-[[5-fluoro-2-(1H-pyrrolo[2,3-b]pyridin-3-yl)pyrimidin-4-yl]amino]cyclohexyl]methanesulfonamide [Compound 337]”, in experiment [1] (read-out: IC50), the IC50 lay in the range of 5 to 20 µM. For the same compound, the EC50 in experiment [2] (setting [10]) is under 5 µM.

Values taken from US8829007B2 (priority 2009, dated 2014).
